Patent publication US20240317727A1 (Duke University, priority 2018, published 2024)

Assays:
[1] = test system: heat shock induced chaperone (Hsp25 and Hsp70) expression; assay: Heat shock induced chaperone expression in MEFs, immunoblotting; type: cell-based, mouse; details: heat shock 42° C. 30 mins, 6-hour recovery, FIG. 3
Procedure: The MEFs were then subjected to heat shock stress at 42° C. for 30 mins to activate HSF1. After heat shock, the MEFs were incubated at 37° C. for a 6-hour recovery. The whole cell lysates were collected at the end of the experiment, and proteins of interest, including Hsp25, Hsp70, HSF1 and GAPDH (as loading control) were assessed by immunoblotting with the corresponding antibody.

K-562 = assay: NCI60 cell growth and viability: K-562; type: cell-based; details: K-562, Leukemia, two days
NCI-H226 = type: cell-based; details: NCI-H226, Non-Small Cell Lung Cancer, two days
SF-539 = assay: NCI60 cell growth and viability: SF-539; type: cell-based; details: SF-539, CNS Cancer, two days
[2] = 7-week Maximal Tolerated Dose (MTD) study in mice; type: in vivo; details: 25 mpk three times per week, intra-peritoneal, 7 weeks
RXF 393 = assay: NCI60 cell growth and viability: RXF 393; type: cell-based; details: RXF 393, Renal Cancer, two days
ACHN = assay: NCI60 cell growth and viability: ACHN; type: cell-based; details: Renal Cancer, two days
T-47D = assay: NCI60 cell growth and viability: T-47D; type: cell-based; details: Breast Cancer, two days
RPMI-8226 = assay: NCI60 cell growth and viability: RPMI-8226; type: cell-based; details: RPMI-8226, Leukemia, two days
[3] = test system: C4/2 scramble and HSF1-knockdown cell lines; assay: C4/2 scramble vs HSF1-knockdown cell line; type: cell-based, human
Procedure: GAPDH was used as a loading control. […] Hsp70 is a gene activated by HSF1 and STAT6 is a gene repressed by HSF1. […] Shown is the solvent (DMSO) or two concentrations of Compound 0017 at 2.5 and 5 μM. ns=not significant; *=P<0.05; **=P<0.01 in accordance with one embodiment of the present disclosure.

MCF7 = assay: NCI60 cell growth and viability: MCF7; type: cell-based; details: MCF7, Breast Cancer, two days
UACC-257 = assay: NCI60 cell growth and viability: UACC-257; type: cell-based; details: UACC-257, Melanoma, two days
HOP-62 = assay: NCI60 cell growth and viability: HOP-62; type: cell-based; details: HOP-62, Non-Small Cell Lung Cancer, two days
[4] = test system: C4/2 prostate cancer cells; assay: Mouse xenograft model of Prostate Cancer; type: in vivo; details: nude mice, 25 mg/kg every other day intraperitoneal, vs vehicle
Procedure: FIGS. 7A and 7B are graphs showing that the compounds of the disclosure inhibit tumor growth in a mouse xenograft model of Prostate Cancer. Nude mice were inoculated on their flank with one million C4/2 prostate cancer cells (n=20 mice). One week after inoculation, tumors were apparent and mice were then treated with either vehicle (n=10 mice) or Compound 0017 (n=10 mice) at 25 mg/kg every other day by intraperitoneal administration. On the indicated days after the start of vehicle or Compound 0017 administration, tumors were measured in situ with a caliper and tumor volume calculated in cubic millimeters (FIG. 7A). Simultaneously, mouse weight was determined (FIG. 7B). Error bars represent standard error of the mean. **=P<0.01 in accordance with one embodiment of the present disclosure.

EKVX = assay: NCI60 cell growth and viability: EKVX; type: cell-based; details: Non-Small Cell Lung Cancer, two days
SK-MEL-5 = assay: NCI60 cell growth and viability: SK-MEL-5; type: cell-based; details: SK-MEL-5, Melanoma, two days
MOLT-4 = assay: NCI60 cell growth and viability: MOLT-4; type: cell-based; details: MOLT-4, Leukemia, two days
HSF1 target gene, Hsp70 = assay: Hsp70 transcript in mouse liver and heart tissue, qRT-PCR; type: in vivo; details: mice, 25 mpk three times per week i.p., vs vehicle, relative to GAPDH, FIG. 6B
Procedure: The cells were treated for 96 hours with the indicated concentrations of the compounds of the disclosure and cell viability was measured with the AlamarBlue assay. […]. […] After sacrificing the mice on the last day of the administration, mouse liver and heart tissue was isolated, messenger RNA extracted and the transcript abundance of the HSF1 target gene, Hsp70, was evaluated by qRT-PCR relative to the internal RNA control, GAPDH. The results of the vehicle-treated versus Compound 0017-treated experiments were compared. […]; **=P<0.01 in accordance with one embodiment of the present disclosure.

[5] = Homo sapiens, 48 h, read-out: log10 [GI50 (M)] (converted)
[6] = Homo sapiens, 48 h, read-out: log10 [LC50 (M)] (converted)

## O=C(Nc1ccc(F)cc1)Nc1ccc(Cl)c([N+](=O)[O-])c1 [Compound 0017, 1-(4-chloro-3-nitrophenyl)-3-(4-fluorophenyl)urea]
[1]
  heat shock induced chaperone (Hsp25 and Hsp70) expression: dose-dependently inhibited
K-562; Homo sapiens, K562, 48 h, read-out: log10 [GI50 (M)] (converted)
  GI50: 3.24e-06 M
K-562; Homo sapiens, K562, 48 h, read-out: log10 [LC50 (M)] (converted)
  CC50: ≥ 0.0001 M
K-562
  log10 [TGI (M)]: −4.00 log10 M
NCI-H226; [5]
  GI50: 2.29e-06 M
NCI-H226; [6]
  LC50: 3.63e-05 M
NCI-H226
  log10 [TGI (M)]: −5.03 log10 M
SF-539; [5]
  GI50: 3.89e-06 M
SF-539; [6]
  CC50: 4.07e-05 M
SF-539
  log10 [TGI (M)]: −4.84 log10 M
[2]
  tolerability: well tolerated
RXF 393; [5]
  GI50: 1.74e-06 M
RXF 393; [6]
  CC50: 2.82e-05 M
RXF 393
  log10 [TGI (M)]: −5.17 log10 M
ACHN; [5]
  GI50: 2.95e-06 M
ACHN; [6]
  CC50: 6.03e-05 M
ACHN
  log10 [TGI (M)]: −4.96 log10 M
T-47D
  log10 [TGI (M)]: −5.01 log10 M
T-47D; Homo sapiens, T47D, 48 h, read-out: log10 [GI50 (M)] (converted)
  GI50: 2.19e-06 M
T-47D; Homo sapiens, T47D, 48 h, read-out: log10 [LC50 (M)] (converted)
  CC50: 5.13e-05 M
RPMI-8226; [5]
  GI50: 1.91e-06 M
RPMI-8226; [6]
  CC50: ≥ 0.0001 M
RPMI-8226
  log10 [TGI (M)]: −5.07 log10 M
[3]; 2.5 and 5 μM, FIG. 5C
  cell viability, HSF1-expressing vs HSF1-knockdown C4/2 cells: preferentially reduces cell viability
[3]; 48-hour treatment, in C4/2 scramble cell line, but not in HSF1-knockdown cell line, FIG. 5B
  Hsp70 and STAT6 expression: inhibition of Hsp70 expression and de-repression of STAT6
MCF7; [5]
  GI50: 2.63e-06 M
MCF7; [6]
  CC50: 7.08e-05 M
MCF7
  log10 [TGI (M)]: −4.92 log10 M
UACC-257; [5]
  GI50: 2.75e-06 M
UACC-257; [6]
  CC50: 3.09e-05 M
UACC-257
  log10 [TGI (M)]: −5.05 log10 M
HOP-62
  log10 [TGI (M)]: −4.80 log10 M
HOP-62; [5]
  GI50: 3.8e-06 M
HOP-62; [6]
  CC50: 5.62e-05 M
[4]; FIG. 7B
  mouse weight: without impacting the weight
[4]; C4-2 derived tumors, 21-day, FIG. 7A
  tumor growth (tumor volume): inhibits the growth
EKVX; [5]
  GI50: 2.82e-06 M
EKVX; [6]
  CC50: 6.17e-05 M
EKVX
  log10 [TGI (M)]: −4.96 log10 M
SK-MEL-5; [5]
  GI50: 1.78e-06 M
SK-MEL-5; [6]
  CC50: 5.89e-06 M
SK-MEL-5
  log10 [TGI (M)]: −5.49 log10 M
MOLT-4; [5]
  GI50: 3.16e-06 M
MOLT-4; [6]
  CC50: ≥ 0.0001 M
MOLT-4
  log10 [TGI (M)]: −4.03 log10 M
HSF1 target gene, Hsp70
  Hsp70 transcript abundance in liver and heart tissue: inhibits expression of the HSF1 target Hsp70
